Measured values published in patent publication US10172822B2, “Pharmaceutical use of 3-benzylsulfonylpropionitrile” (Olatec Therapeutics LLC, priority 2013, dated 2019).

How the values were obtained:
[1] = tested on: tail flick reaction to heat; assay: tail flick test in mice (49° C. water bath); format: in vivo
Description: The tail flick test is a test of the pain response in animals. The tail flick test is used in basic pain research and to measure the effectiveness of analgesics, by observing the tail flick reaction to heat in an animal. This test assesses the nociceptive response to a local pain stimulus, and the ability of a drug to inhibit this response.
Vehicle control (DMSO) and test compound 3-benzylsulfonylpropionitrilein in DMSO were administered by oral gavage to mice with a volume of 5 mL/kg, immediately prior to testing, at time zero. The test compound was administered at a dosage of 500 mg/kg in DMSO. Positive control morphine in water was administered at time zero by subcutaneous injection at 8 mg/kg to mice. […] The purpose of morphine is […] to serve as a comparison with the test compound. Each group had 10 mice.
The response of mice to heat stimulus was evaluated by measuring the time of tail-flick or tail-flick latency from 49° C. water bath. Briefly, the animal was held with its tail hanging down. Approximately 2 inches of the tail was immersed in a beaker of water at 38±1° C. for about 30 seconds, and this was done twice to acclimate the animal to the procedure.
Subsequently, approximately 2 inches of the tail was immersed in a beaker of water at 49±1° C., at which point a timer was started.
Tail flick measurements were made at 0, 30, 60, and 120 minutes post administration of the dosage of test compound, vehicle, or morphine. An ANOVA was done, and if p<0.05, a Dunnett's t test was employed to calculate significant difference between vehicle control and test compound treated groups. A pairwise Student's t test was used to calculate differences between the morphine group and the control group. […] Analysis with p-values <0.05 is considered significant.

[2] = tested on: arachidonic acid-induced ear swelling; assay: topical arachidonic acid-induced ear swelling model in mice; format: in vivo
Description: The test compound, indomethacin (positive control), and vehicle were evaluated for anti-inflammatory activity in a topical arachidonic acid-induced ear swelling model in mice. Male ICR mice weighing 22±2 g were used and randomly divided; the test compound and vehicle control had 10 mice, and indomethacin had 5 mice. Arachidonic Acid (0.5 mg in 20 μl of acetone:ethanol/1:1) was applied topically to the anterior and posterior surfaces of the right ear of each mice. Test substances and vehicle, as listed in Table 1 were similarly applied 30 min before and 15 min after arachidonic acid application. The thickness of the right ear and the left ear was measured and the difference calculated as an indication of the inflammation in the right ear. Ear swelling was measured by a Dyer model micrometer gauge at 60 and 90 minutes after arachidonic acid application as an index of inflammation. Percent inhibition was calculated according to the formula: Ic−It/Ic×100, where Ic and It refers to increase of ear thickness (mm) in control and treated mice, respectively. ANOVA and Dunnett's test were employed to ascertain significant difference between vehicle control and treated groups. Significance is set at P<0.05 level.

N#CCCS(=O)(=O)Cc1ccccc1 [3-Benzylsulfonylpropionitrile, 3-benzylsulfonylpropionitrile]
tail flick latency compared with vehicle-treated mice ([1]; oral administration 500 mg/kg in DMSO, 30, 60, and 120 minutes post dosing): statistically significant tail flick latency
anti-inflammatory activity in the mouse ear swelling model ([2]; applied topically, inflammation induced by arachidonic acid): anti-inflammatory

COc1ccc2c(c1)c(CC(=O)O)c(C)n2C(=O)c1ccc(Cl)cc1 [Indomethacin, indomethacin, reference compound]
% Inhibition of ear swelling ([2]; topical application 30 min before and 15 min after arachidonic acid, measured at 90 minutes after arachidonic acid, relative to vehicle): 58%

CN1CC[C@]23c4c5ccc(O)c4O[C@H]2[C@@H](O)C=C[C@H]3[C@H]1C5 [morphine]
tail flick latency compared with vehicle-treated mice ([1]; subcutaneous injection 8 mg/kg, 30 and 60 minutes post dosing): statistically significant tail flick latency
tail flick latency compared with vehicle-treated mice ([1]; subcutaneous injection 8 mg/kg, 120 minutes post dosing): not
